Test results: paper PMC9144902, “Metal(II) Complexes of the Fluoroquinolone Fleroxacin: Synthesis, Characterization and Biological Profile” (Pharmaceutics, 2022)
Read-outs that look alike come from different tables or passages of the source.

Columns and labels:
[1] = molecular target: T1, human serum albumin (HSA) (Homo sapiens, UniProt P02768); assay: Albumin binding by tryptophan fluorescence emission quenching; conditions: for K(HSA), HSA-binding constant / kq(HSA), HSA-quenching constant: HSA 3 μM; for K(HSA), HSA-binding constant: buffer pH 7.0, Scatchard equation; for kq(HSA), HSA-quenching constant: buffer pH 7.0, λexc 295 nm, Stern–Volmer, τ0 = 10^–8 s; for HSA fluorescence, % of the initial fluorescence intensity (I/Io): λem,max = 351 nm, final value of titration (Figure S10)
T1 construct: purchased
Experimental: (§1) Serum albumins (Sas) are the most abundant serum proteins and play a role in the circulatory system, primarily in the transport of drugs and other bioactive small molecules through the bloodstream.
(§2) The SA-quenching constants (kq) for the compounds (Table 5) were calculated with the Stern–Volmer quenching equation (Equations (S2) and (S3)).
(§3) Albumin-binding constants (K) were calculated using the Scatchard equation (Equation (S4)). […]
(§4) S2. Interaction with serum albumins
(§5) The albumin–binding study for the compounds was carried out b y fluorescence emission

[2] = molecular target: T2, bovine serum albumin (BSA) (Bos taurus, UniProt P02769); assay: as above; conditions: for K(BSA), BSA-binding constant / kq(BSA), BSA-quenching constant: BSA 3 μM; for K(BSA), BSA-binding constant: buffer pH 7.0, Scatchard equation; for kq(BSA), BSA-quenching constant: buffer pH 7.0, λexc 295 nm, Stern–Volmer, τ0 = 10^–8 s; for BSA fluorescence, % of the initial fluorescence intensity (I/Io): λem,max = 342 nm, final value of titration (Figure S11)
T2 construct: purchased
Experimental: as §1, §2, §3, §4, §5

EB–DNA adduct (CT DNA) = assay: Competitive study with EB (EB–DNA fluorescence quenching); format: binding, calf; conditions: for Ksv, Stern–Volmer constant: EB–DNA adduct; for ΔI/Io, percentage of EB–DNA fluorescence quenching: [EB] = 20 μM, [DNA] = 26 μM, λexc 540 nm, λem 592 nm; for EB–DNA relative fluorescence emission intensity, % of the initial (I/Io): λemission = 592 nm, final value (up to), Figure S14; for kq, EB–DNA quenching constant: τo = 23 ns
Experimental: Ethidium bromide is a typical marker of intercalation because it can intercalate between adjacent DNA bases with its planar phenanthridine ring.
The fluorescence emission spectra of the EB–DNA adduct ([EB] = 20 μM, [DNA] = 26 μM) in the absence and presence of the compounds were recorded at increasing amounts of the respective compounds. […] As a conclusion, an intercalative interaction of the complexes with CT DNA can be proposed.
The values of the Stern–Volmer constants (Ksv) for the compounds were calculated using the linear Stern–Volmer equation (Equation (S2)) and were of the order of 10^5 M^−1 (Table 8), indicating tight binding of the complexes with DNA [61]. The Ksv values for the complexes are in the range found for a number of metal(II)–quinolone complexes, and complex 12 presents the highest Ksv value (Ksv = 7.25(±0.30) × 10^5 M^−1) among the compounds studied. In addition, the EB–DNA quenching constants (kq) for the compounds were calculated with Equation (S3), assuming τo = 23 ns as the fluorescence lifetime. The values of kq (Table 8) are much higher than the value of 10^10 M^−1s^−1, indicating a static mechanism of EB–DNA fluorescence quenching induced by the compounds, which can result from the formation of a new adduct apparently consisting of each complex and DNA [61].
In order to determine and confirm the DNA–binding mode of the compounds, a competitive study with EB as an intercalating marker is performed b y fluorescence emission spectroscopy.
Therefo re, the E B–displacing abilit y of the compounds from its EB –DN A conjugate was ex amined.
The DNA–EB adduct was prepared b y addition of 20 μM EB and 26 μM CT DNA in buffer solution (150 mM NaCl and 15 mM trisodium citrate at pH 7.0). The potential intercalation of the compounds between the DNA–bases was studied by the addition of a certain amount of the compound solution into the EB–DNA adduct solution. The influence of the compounds on the EB – DNA solution was monitored through the changes of the fluorescence emission spectra at excitation […]
wavelen gth (λex ) at 540 nm [S3]. […]
room temperature in solution or in the presence of DNA, under the same experimental conditions (λex = 540 nm). Bearing t hat in mind, the observed quenching of the EB–DNA solution is evidentl y associated to the displacement of EB from its EB–DNA adduct.
The quenching effici ency (KSV) for each compound was assessed according to the Stern – Volmer equation: Io =1+ k τ [Q] = 1+ K [Q], (eq. S2) [S3] where I0 and I = the fluorescence […]
emission intensities of EB–DNA in the absence and presence of the quencher, respectivel y, [Q] = the concentration of the quencher (i.e. compounds). KSV is obtained from t he Stern–Volmer plots b y the slope of the diagram I0/ I versus [Q]. Taking τ0 = 23 ns as the fluorescence lifetime of the EB– DNA s ystem [S5], the EB –DNA quenching constants (k q) of the compounds can be determined accordin g to eq.S3: K SV = kqτo . […]
[S2] Irgi, E.P.; Geromichalos, G.D.; Balala, S.; Kljun, J.; Kalogiannis, S.; Papadopoulos, A.; Turel, I.; Psomas, G. Cobalt(II) complexes with quinolone antimicrobial drug oxolinic acid: […]
[ S 5] Heller, D.P.; Greenstock, C.L. Fluorescence lifetime analysis of DNA intercalated ethidium bromide and quenching by free d ye. Biophys. Chem . 1994, 50, 305–312.

[3] = test system: Staphylococcus aureus ATCC 6538; assay: Antimicrobial activity, MIC determination; format: cell-based
Experimental: (§6) The in vitro antimicrobial activity of the compounds was evaluated by determining the minimum inhibitory concentration (MIC) against the Gram-positive microorganisms Staphylococcus aureus ATCC 6538 (S. aureus) and Bacillus subtilis ATCC 6633 (B. subtilis) and the Gram-negative microorganism Xanthomonas campestris ATCC 1395 (X. campestris). The affinity of the compounds for bovine serum albumin (BSA) and human serum albumin (HSA) was studied by fluorescence emission spectroscopy, and the corresponding binding constants were determined. Furthermore, the interaction of the compounds with calf-thymus DNA (CT DNA) was investigated to determine the possible mode of interaction by the following methods: (i) UV–vis spectroscopy (where the DNA-binding constants of the complexes (Kb) were also determined), (ii) DNA-viscosity measurements, (iii) cyclic voltammetry and (iv) competitive DNA-binding studies with the classic intercalator ethidium bromide (EB) performed by fluorescence emission spectroscopy.
(§7) Three bacterial strains, one Gram(−) (X. campestris) and two Gram(+) (S. aureus and B. subtilis), were used in order to test the antimicrobial activity of the compounds.
(§8) The antimicrobial activity of the compounds was evaluated b y determining their respective MIC values towards one Gram–( –) (Xanthomonas campestris ATCC 1395 (X. campestris)) and two Gram–(+) (Staphylococcus aureus ATCC 6538 (S. aureus) and Bacillus subtilis ATCC 6633 (B. subtilis)) bacterial species. Cultures of these microbial strains were grown on a rich selective agar medium and stored at 4°C. The selective media used were Nutrient Agar or Broth for B. subtilis and S. aureus, and Yeast Mold Agar or Broth for X. campestris . Cells picked from the surface of the stored cultures were used to initiate liquid pre–cultures of the same selective medium at an initial turbidity of roughl y 1 McFarland unit. Pre–cultures were incubated for 24 h in a rotar y sh aking incubator and subsequently the y were used to inoculate the test cultures used for the determination of MIC at an initial turbidity of 0.5 McFarland units. The test cultures consisted of Mueller–Hinton broth (Deben Diagnostics Ltd) containing different concentrations of the compounds. Different concentrations were achieved as follows: the compounds were freshly dissolved in DMSO to a concentration of 1 mg/mL and they were diluted with DMSO, using the method of progressive double dilution. Therefore, working solutions with decreasing concentrations of the compounds under investigation were achieved. The working solutions were subsequently diluted to the final desired concentration b y addition to the growth medium at a proportion of 2:98. MIC values were determined as the lowest concentrations of the tested compounds that inhibited visible growth of each respective organism after a 24–h incubation [ S1]. Bacterial growth was determined b y measuring the turbidit y of appropriatel y diluted cultures at 600 nm with reference to equall y diluted sterile growth medium and the inhibition achieved was calculated b y comparing the turbidit y of each culture to the average of the turbidit y of three non–inhibited cultures. All test cultures were grown in triplicates and for the determination of MIC, growth had to be inhibited in at least two cultures of the triplicate. In cubation temperatur e at all stages was 37°C ex cept for X. campestris t h at was cultivated at 28°C [S2]. […]
(§9) The fluorescence spectra of the compounds were recorded under the same experimental conditions and presented a low–intensity emission band in the region 405–410 nm .

[4] = test system: Bacillus subtilis ATCC 6633; assay: Antimicrobial activity, MIC determination; format: cell-based
Experimental: as §6, §7, §8, §9

[5] = test system: Xanthomonas campestris ATCC 1395; assay: Antimicrobial activity, MIC determination; format: cell-based
Experimental: as §6, §7, §8, §9

[6] = S. aureus, 24-h incubation, 37°C
[7] = B. subtilis, 24-h incubation, 37°C
[8] = X. campestris, 24-h incubation, 28°C

T1 sequence (P02768 25-609): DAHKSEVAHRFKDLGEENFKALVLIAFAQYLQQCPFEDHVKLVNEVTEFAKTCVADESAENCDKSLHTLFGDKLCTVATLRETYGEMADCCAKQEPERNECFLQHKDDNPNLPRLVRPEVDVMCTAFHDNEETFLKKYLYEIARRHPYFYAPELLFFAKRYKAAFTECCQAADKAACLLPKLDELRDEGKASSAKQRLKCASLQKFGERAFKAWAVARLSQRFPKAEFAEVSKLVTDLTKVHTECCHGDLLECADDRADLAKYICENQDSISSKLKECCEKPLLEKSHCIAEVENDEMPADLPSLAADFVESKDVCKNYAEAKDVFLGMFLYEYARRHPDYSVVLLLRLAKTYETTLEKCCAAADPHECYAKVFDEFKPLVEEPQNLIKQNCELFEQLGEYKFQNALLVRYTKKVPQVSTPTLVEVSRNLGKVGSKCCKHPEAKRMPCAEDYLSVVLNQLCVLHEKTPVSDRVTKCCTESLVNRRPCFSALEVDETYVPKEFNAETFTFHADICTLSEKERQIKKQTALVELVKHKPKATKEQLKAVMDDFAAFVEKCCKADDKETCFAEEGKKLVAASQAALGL
T2 sequence (P02769 25-607): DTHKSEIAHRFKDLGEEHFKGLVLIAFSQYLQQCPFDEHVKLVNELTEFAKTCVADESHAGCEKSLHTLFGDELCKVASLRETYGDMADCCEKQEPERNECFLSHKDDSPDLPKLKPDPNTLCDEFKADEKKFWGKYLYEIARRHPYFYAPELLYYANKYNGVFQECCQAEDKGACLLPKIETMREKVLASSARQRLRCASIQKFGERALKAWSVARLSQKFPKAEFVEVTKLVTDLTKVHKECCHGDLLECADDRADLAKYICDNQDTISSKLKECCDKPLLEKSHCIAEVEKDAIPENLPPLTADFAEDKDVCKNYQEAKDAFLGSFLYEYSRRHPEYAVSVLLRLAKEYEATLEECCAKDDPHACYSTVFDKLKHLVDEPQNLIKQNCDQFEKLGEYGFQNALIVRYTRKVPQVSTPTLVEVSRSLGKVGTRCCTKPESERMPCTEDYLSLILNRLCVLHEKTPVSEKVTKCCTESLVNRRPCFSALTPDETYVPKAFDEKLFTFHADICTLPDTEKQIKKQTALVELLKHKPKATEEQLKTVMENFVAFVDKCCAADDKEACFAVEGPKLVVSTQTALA

Row | SMILES | K(HSA), HSA-binding constant [1] | kq(HSA), HSA-quenching constant [1] | HSA fluorescence, % of the initial fluorescence intensity (I/Io) [1] [%] | K(BSA), BSA-binding constant [2] | kq(BSA), BSA-quenching constant [2] | BSA fluorescence, % of the initial fluorescence intensity (I/Io) [2] [%] | Ksv, Stern–Volmer constant (EB–DNA adduct (CT DNA)) | ΔI/Io, percentage of EB–DNA fluorescence quenching (EB–DNA adduct (CT DNA)) [%] | EB–DNA relative fluorescence emission intensity, % of the initial (I/Io) (EB–DNA adduct (CT DNA)) [%] | kq, EB–DNA quenching constant (EB–DNA adduct (CT DNA)) | MIC [3, 6] [µg/mL] | MIC (values in parentheses) [3, 6] [µM] | MIC [4, 7] [µg/mL] | MIC (values in parentheses) [4, 7] [µM] | MIC [5, 8] [µg/mL] | MIC (values in parentheses) [5, 8] [µM] | other results
1 | CN1CCN(c2c(F)cc3c(=O)c(C(=O)[O-])cn(CCF)c3c2F)CC1.CN1CCN(c2c(F)cc3c(=O)c(C(=O)[O-])cn(CCF)c3c2F)CC1.[Zn+2].c1ccc(Nc2ccccn2)nc1 [complex 13, [Zn(flrx)2(bipyam)]] | 3.69(±0.14) × 10^4 M^−1 | 1.23(±0.05) × 10^13 M^−1s^−1 | 27.9 | 3.60(±0.14) × 10^4 M^−1 | 3.37(±0.14) × 10^13 M^−1s^−1 | 14.6 | 6.51(±0.19) × 10^5 M^–1 | 81.8 | 18.2 | 2.84(±0.08) × 10^13 M^−1s^−1 | 8 | 8.2 | 4 | 4.1 | 16 | 16.4 | 
2 | CN1CCN(c2c(F)cc3c(=O)c(C(=O)O)cn(CCF)c3c2F)CC1 [Fleroxacin, 6,8-difluoro-1-(2–fluoroethyl)-7-(4-methylpiperazin-1-yl)-4-oxoquinoline-3-carboxylic acid] |  | 2.69(±0.11) × 10^12 M^−1s^−1 | 66.5 |  | 6.19(±0.23) × 10^12 M^−1s^−1 | 47.5 | 4.64(±0.14) × 10^5 M^–1 | 65.8 | 34.2 | 2.02(±0.06) × 10^13 M^−1s^−1 |  |  |  |  |  |  | Kd [1]: 15.2 µM; Kd [2]: 30.5 µM; MIC ([3]; Staphylococcus aureus, ATCC6538, 24 h): 4 µg/mL; MIC ([3]; Staphylococcus aureus, ATCC6538, 24 h, read-out: MIC (values in parentheses)): 10.8 µM; MIC ([4]; Bacillus subtilis, ATCC6633, 24 h): 4 µg/mL; MIC ([4]; Bacillus subtilis, ATCC6633, 24 h, read-out: MIC (values in parentheses)): 10.8 µM; MIC ([5]; Xanthomonas campestris, ATCC1395, 24 h): 8 µg/mL; MIC ([5]; Xanthomonas campestris, ATCC1395, 24 h, read-out: MIC (values in parentheses)): 21.7 µM
3 | CN1CCN(c2c(F)cc3c(=O)c(C(=O)[O-])cn(CCF)c3c2F)CC1.CN1CCN(c2c(F)cc3c(=O)c(C(=O)[O-])cn(CCF)c3c2F)CC1.[Zn+2].c1cnc2c(c1)ccc1cccnc12 [complex 14, [Zn(flrx)2(phen)]] | 6.16(±0.43) × 10^4 M^−1 | 1.10(±0.04) × 10^13 M^−1s^−1 | 33.5 | 5.56(±0.25) × 10^4 M^−1 | 1.61(±0.07) × 10^13 M^−1s^−1 | 25.8 | 3.03(±0.05) × 10^5 M^–1 | 77.9 | 22.1 | 1.32(±0.02) × 10^13 M^−1s^−1 | 8 | 8.1 | 8 | 8.1 | 16 | 16.3 | 
